From PubChem BioAssay (NCI)
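GI50 = concentration required for 50% inhibition of growth. The concentration for full growth arrest is given as TGI.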

Key:
Experiment in all cases: NCI-60 cell line screen, 384-well format
[1] = test system: OVCAR-8 ovarian
[2] = test system: OVCAR-5 ovarian
[3] = test system: HS 578T breast
[4] = test system: NCI-H460 NSCLC
[5] = test system: SW-620 colon
[6] = test system: A498 renal
[7] = test system: HOP-92 NSCLC
[8] = test system: A549 NSCLC
[9] = test system: SN12C renal
[10] = test system: IGROV1 ovarian
[11] = test system: MDA-MB-231 breast
[12] = test system: UACC-257 melanoma
[13] = test system: LOX IMVI melanoma
[14] = test system: HT29 colon
[15] = test system: PC-3 prostate
[16] = test system: SK-MEL-28 melanoma
[17] = test system: SK-MEL-5 melanoma
[18] = test system: TK-10 renal
[19] = test system: SNB-75 CNS
[20] = test system: RXF 393 renal
[21] = test system: M14 melanoma
[22] = test system: NCI-H322M lung
[23] = test system: SK-MEL-2 melanoma
[24] = test system: SNB-19 CNS
[25] = test system: SF-539 CNS
[26] = test system: OVCAR-3 ovarian
[27] = test system: CCRF-CEM leukemia
[28] = test system: ACHN renal
[29] = test system: HCT-116 colon
[30] = test system: K-562 leukemia
[31] = test system: NCI-H23 lung
[32] = test system: SF-295 CNS
[33] = test system: NCI/ADR-RES ovarian
[34] = test system: BT-549 breast
[35] = test system: CAKI-1 renal
[36] = test system: MCF7 breast
[37] = test system: MDA-MB-468 breast
[38] = test system: U251 glioblastoma
[39] = test system: OVCAR-4 ovarian
[40] = test system: HL-60(TB) leukemia
[41] = test system: HOP-62 NSCLC
[42] = test system: MDA-MB-435 melanoma
[43] = test system: COLO 205 colon
[44] = test system: RPMI-8226 leukemia
[45] = test system: NCI-H522 lung
[46] = test system: MOLT-4 leukemia
[47] = test system: HCC-2998 colon
[48] = test system: UO-31 renal
[49] = test system: KM12 colon
[50] = test system: EKVX NSCLC
[51] = test system: MALME-3M melanoma
[52] = test system: SF-268 CNS
[53] = test system: NCI-H226 lung
[54] = test system: SK-OV-3 ovarian
[55] = test system: DU-145 prostate
[56] = test system: UACC-62 melanoma

Question: What does the source list for `Cc1cc(-c2cnn3c(NCC4CC(C)(O)C4)cc(Oc4cccnc4)nc23)ccc1C(=O)NC1CC1` (configuration not stated)?
Answer: GI50 [1]: 80.4 nM; TGI [1]: > 100000 nM; GI50 [2]: 1980 nM; TGI [2]: > 100000 nM; GI50 [3]: 324 nM; TGI [3]: 38400 nM; GI50 [4]: 188 nM; TGI [4]: 11900 nM; GI50 [5]: 62.1 nM; TGI [5]: > 100000 nM; GI50 [6]: 92.1 nM; TGI [6]: > 100000 nM; GI50 [7]: 4880 nM; TGI [7]: > 100000 nM; GI50 [8]: 90.2 nM; TGI [8]: > 100000 nM; GI50 [9]: 1810 nM; TGI [9]: > 100000 nM; GI50 [10]: 1010 nM; TGI [10]: > 100000 nM; GI50 [11]: 735 nM; TGI [11]: > 100000 nM; GI50 [12]: 30700 nM; TGI [12]: > 100000 nM; GI50 [13]: 49.5 nM; TGI [13]: > 100000 nM; GI50 [14]: 2110 nM; TGI [14]: > 100000 nM; GI50 [15]: 1840 nM; TGI [15]: > 100000 nM; GI50 [16]: 11300 nM; TGI [16]: > 100000 nM; GI50 [17]: 74.5 nM; TGI [17]: > 100000 nM; GI50 [18]: 442 nM; TGI [18]: > 100000 nM; GI50 [19]: 1910 nM; TGI [19]: > 100000 nM; GI50 [20]: 64.5 nM; TGI [20]: 2980 nM; GI50 [21]: 245 nM; TGI [21]: > 100000 nM; GI50 [22]: 4570 nM; TGI [22]: 21200 nM; GI50 [23]: 431 nM; TGI [23]: 3540 nM; GI50 [24]: > 100000 nM; TGI [24]: > 100000 nM; GI50 [25]: 45.5 nM; TGI [25]: > 100000 nM; GI50 [26]: 173 nM; TGI [26]: 87900 nM; GI50 [27]: 23.9 nM; TGI [27]: 50.7 nM; GI50 [28]: 906 nM; TGI [28]: > 100000 nM; GI50 [29]: 49 nM; TGI [29]: > 100000 nM; GI50 [30]: 818 nM; TGI [30]: > 100000 nM; GI50 [31]: 374 nM; TGI [31]: > 100000 nM; GI50 [32]: 1860 nM; TGI [32]: > 100000 nM; GI50 [33]: 5900 nM; TGI [33]: > 100000 nM; GI50 [34]: 139 nM; TGI [34]: > 100000 nM; GI50 [35]: 560 nM; TGI [35]: 94500 nM; GI50 [36]: 17200 nM; TGI [36]: > 100000 nM; GI50 [37]: 352 nM; TGI [37]: 4670 nM; GI50 [38]: 65 nM; TGI [38]: > 100000 nM; GI50 [39]: 5590 nM; TGI [39]: > 100000 nM; GI50 [40]: 29.3 nM; TGI [40]: 63.6 nM; GI50 [41]: 83.4 nM; TGI [41]: > 100000 nM; GI50 [42]: 6160 nM; TGI [42]: > 100000 nM; GI50 [43]: 39.4 nM; TGI [43]: > 100000 nM; GI50 [44]: 305 nM; TGI [44]: 995 nM; GI50 [45]: 467 nM; TGI [45]: 33000 nM; GI50 [46]: 22.7 nM; TGI [46]: 43.1 nM; GI50 [47]: 5560 nM; TGI [47]: > 100000 nM; GI50 [48]: 686 nM; TGI [48]: > 100000 nM; GI50 [49]: 67.3 nM; TGI [49]: > 100000 nM; GI50 [50]: 1780 nM; TGI [50]: > 100000 nM; GI50 [51]: 1090 nM; TGI [51]: > 100000 nM; GI50 [52]: 2180 nM; TGI [52]: > 100000 nM; GI50 [53]: 77300 nM; TGI [53]: > 100000 nM; GI50 [54]: 903 nM; TGI [54]: > 100000 nM; GI50 [55]: 68.9 nM; TGI [55]: > 100000 nM; GI50 [56]: 972 nM; TGI [56]: 62100 nM
